{
  "source": "ChEMBL document CHEMBL1133572",
  "about": "“Protease inhibitors: current status and future prospects” (J Med Chem, 2000)",
  "key": {"Cathepsin D [1]": {"target": "T1, Cathepsin D (Homo sapiens, UniProt P07339)", "T1 sequence (P07339 65-162 limits assumed)": "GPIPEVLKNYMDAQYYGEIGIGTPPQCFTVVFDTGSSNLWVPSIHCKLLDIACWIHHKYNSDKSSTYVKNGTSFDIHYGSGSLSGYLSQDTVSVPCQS", "T1 sequence (P07339 169-412 limits assumed)": "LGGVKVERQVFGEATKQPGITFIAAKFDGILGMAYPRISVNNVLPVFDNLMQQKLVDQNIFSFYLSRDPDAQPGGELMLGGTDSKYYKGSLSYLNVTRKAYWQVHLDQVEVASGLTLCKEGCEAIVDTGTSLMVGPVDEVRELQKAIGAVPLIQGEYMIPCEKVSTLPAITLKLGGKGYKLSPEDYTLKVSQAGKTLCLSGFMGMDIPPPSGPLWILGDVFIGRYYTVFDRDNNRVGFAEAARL", "assay": "Inhibitory concentration against Human cathepsin D."}, "[2]": {"assay": "Inhibitory concentration against Aspartic proteases."}, "[3]": {"target": "T2, Disintegrin and metalloproteinase domain-containing protein 17 (Homo sapiens, UniProt P78536)", "T2 sequence (P78536 whole entry, the tested form may be a part)": "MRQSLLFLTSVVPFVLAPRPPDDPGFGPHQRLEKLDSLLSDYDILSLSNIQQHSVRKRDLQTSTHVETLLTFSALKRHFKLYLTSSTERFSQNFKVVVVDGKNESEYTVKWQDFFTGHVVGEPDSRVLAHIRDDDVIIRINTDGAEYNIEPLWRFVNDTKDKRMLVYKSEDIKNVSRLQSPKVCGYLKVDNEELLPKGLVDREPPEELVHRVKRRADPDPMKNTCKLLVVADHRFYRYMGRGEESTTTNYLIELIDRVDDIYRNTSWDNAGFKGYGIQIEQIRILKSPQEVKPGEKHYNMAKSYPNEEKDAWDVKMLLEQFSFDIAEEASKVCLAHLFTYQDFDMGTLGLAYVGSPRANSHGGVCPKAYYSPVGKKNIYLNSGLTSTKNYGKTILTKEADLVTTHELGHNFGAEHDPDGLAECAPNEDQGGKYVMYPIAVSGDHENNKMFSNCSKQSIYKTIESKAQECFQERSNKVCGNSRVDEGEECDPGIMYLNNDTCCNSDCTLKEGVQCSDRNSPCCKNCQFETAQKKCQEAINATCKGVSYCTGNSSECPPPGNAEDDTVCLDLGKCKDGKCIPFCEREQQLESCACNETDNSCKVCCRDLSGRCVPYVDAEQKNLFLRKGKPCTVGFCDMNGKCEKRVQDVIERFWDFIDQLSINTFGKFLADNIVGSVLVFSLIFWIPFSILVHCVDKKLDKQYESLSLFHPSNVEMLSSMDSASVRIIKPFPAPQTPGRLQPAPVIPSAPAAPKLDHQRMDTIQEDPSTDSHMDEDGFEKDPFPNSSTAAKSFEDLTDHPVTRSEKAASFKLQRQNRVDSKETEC", "assay": "Inhibitory activity against Tumor necrosis factor alpha-converting enzyme (TACE) with respect to matrix metalloprotease-1 (MMP-1)."}, "[4]": {"target": "T2, Disintegrin and metalloproteinase domain-containing protein 17", "assay": "Inhibition against Tumor necrosis factor alpha-converting enzyme (TACE) at 1 uM in human monocytes.", "type": "cell-based"}, "[5]": {"assay": "Cmax value in the period of 0-24 hr after dosing.", "type": "ADME, organism-based", "settings": "in vivo"}, "[6]": {"assay": "Oral bioavailability in rats at the dose of 10 mg/kg po", "type": "ADME, organism-based", "settings": "rat, in vivo, read-out: Bioavailabiility"}, "[7]": {"assay": "Plasma half life at the dose of 5 mg/kg iv.", "type": "ADME, organism-based", "set-up": "dose 5 mg/kg"}, "[8]": {"assay": "Tmax value of the compound", "type": "ADME"}, "[9]": {"target": "T3, Human rhinovirus A protease (Human rhinovirus sp., UniProt Q4U254)", "T3 sequence (Q4U254 whole entry)": "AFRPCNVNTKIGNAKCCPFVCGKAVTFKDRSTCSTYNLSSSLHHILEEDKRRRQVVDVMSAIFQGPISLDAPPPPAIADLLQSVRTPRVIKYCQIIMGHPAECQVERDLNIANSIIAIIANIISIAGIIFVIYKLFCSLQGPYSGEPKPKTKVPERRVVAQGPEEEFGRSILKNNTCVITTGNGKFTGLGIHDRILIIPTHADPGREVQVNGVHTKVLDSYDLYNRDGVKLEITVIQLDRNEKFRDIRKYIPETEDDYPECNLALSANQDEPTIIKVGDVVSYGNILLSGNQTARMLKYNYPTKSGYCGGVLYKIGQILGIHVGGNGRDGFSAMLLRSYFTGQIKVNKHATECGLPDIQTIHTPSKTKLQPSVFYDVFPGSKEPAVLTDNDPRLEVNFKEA"}, "[10]": {"target": "T3, Human rhinovirus A protease", "remark": "listed apart in the source"}, "[11]": {"target": "T4, Human rhinovirus A protease (Human rhinovirus sp.) (UniProt Q4U254)", "T4 sequence (whole entry)": "T3 sequence (Q4U254 whole entry)", "assay": "The toxic concentration against Protease 3C"}, "Cathepsin B": {"target": "Cathepsin B (Homo sapiens, UniProt P07858)"}, "Papain": {"target": "Papain (Carica papaya, UniProt P00784)", "sequence (P00784 whole entry)": "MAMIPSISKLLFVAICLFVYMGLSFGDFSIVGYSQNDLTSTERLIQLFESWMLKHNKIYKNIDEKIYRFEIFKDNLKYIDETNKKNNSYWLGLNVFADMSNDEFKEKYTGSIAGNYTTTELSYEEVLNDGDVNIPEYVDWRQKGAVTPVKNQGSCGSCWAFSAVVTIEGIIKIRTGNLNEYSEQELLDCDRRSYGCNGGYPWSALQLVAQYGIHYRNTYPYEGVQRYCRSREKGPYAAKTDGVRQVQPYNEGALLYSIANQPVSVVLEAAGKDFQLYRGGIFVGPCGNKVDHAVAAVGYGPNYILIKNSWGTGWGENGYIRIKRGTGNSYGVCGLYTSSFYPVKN", "assay": "The apparent binding affinity against Papain", "settings": "read-out: Ki app"}, "Procathepsin L": {"target": "Procathepsin L (Homo sapiens, UniProt P07711)", "sequence (P07711 whole entry)": "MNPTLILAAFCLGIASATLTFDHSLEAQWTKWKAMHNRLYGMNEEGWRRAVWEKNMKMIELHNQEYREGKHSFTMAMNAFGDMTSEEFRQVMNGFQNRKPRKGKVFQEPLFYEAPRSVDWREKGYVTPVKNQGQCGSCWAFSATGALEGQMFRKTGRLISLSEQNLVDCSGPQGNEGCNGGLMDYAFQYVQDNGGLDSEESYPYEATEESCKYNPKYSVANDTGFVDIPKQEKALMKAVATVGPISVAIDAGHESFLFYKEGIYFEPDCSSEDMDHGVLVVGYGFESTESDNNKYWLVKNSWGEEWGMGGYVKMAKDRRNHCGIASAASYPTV"}, "[12]": {"assay": "Cmax value of the compound", "type": "ADME, organism-based", "settings": "in vivo"}, "Cathepsin D [13]": {"target": "T1, Cathepsin D"}, "Plasmepsin II": {"target": "Plasmepsin II (Plasmodium falciparum, UniProt P46925)", "sequence (P46925 whole entry)": "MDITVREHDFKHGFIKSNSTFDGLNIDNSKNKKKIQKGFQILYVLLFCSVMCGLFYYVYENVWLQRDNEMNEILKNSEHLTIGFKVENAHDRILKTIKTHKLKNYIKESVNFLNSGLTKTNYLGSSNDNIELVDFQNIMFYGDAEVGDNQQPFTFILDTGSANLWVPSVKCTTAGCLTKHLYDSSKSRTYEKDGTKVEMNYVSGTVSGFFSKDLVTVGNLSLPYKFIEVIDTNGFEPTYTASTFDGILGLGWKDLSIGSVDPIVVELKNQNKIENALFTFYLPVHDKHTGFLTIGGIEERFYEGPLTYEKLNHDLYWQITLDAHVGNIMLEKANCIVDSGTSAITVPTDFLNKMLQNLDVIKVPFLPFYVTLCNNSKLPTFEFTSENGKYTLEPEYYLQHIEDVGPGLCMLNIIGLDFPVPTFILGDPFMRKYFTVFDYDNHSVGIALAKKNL", "assay": "Inhibitory concentration for Plasmodium falciparum plasmepsin-2."}, "[14]": {"assay": "oral bioavailability in dogs and monkeys.", "type": "ADME, organism-based, Canis lupus familiaris", "settings": "dog, in vivo, read-out: Bioavailabiility"}, "[15]": {"assay": "Cmax value in the period of […] hr after dosing.", "type": "ADME, organism-based", "settings": "in vivo"}, "[16]": {"assay": "Cmax value in the period of […] hr after dosing, when administered with ritonavir.", "type": "ADME, organism-based", "settings": "in vivo"}, "MT4": {"test_system": "MT4", "assay": "cells", "settings": "Homo sapiens"}, "[17]": {"target": "Matrix metalloproteinase-9 (Homo sapiens, UniProt P14780)", "sequence (P14780 whole entry)": "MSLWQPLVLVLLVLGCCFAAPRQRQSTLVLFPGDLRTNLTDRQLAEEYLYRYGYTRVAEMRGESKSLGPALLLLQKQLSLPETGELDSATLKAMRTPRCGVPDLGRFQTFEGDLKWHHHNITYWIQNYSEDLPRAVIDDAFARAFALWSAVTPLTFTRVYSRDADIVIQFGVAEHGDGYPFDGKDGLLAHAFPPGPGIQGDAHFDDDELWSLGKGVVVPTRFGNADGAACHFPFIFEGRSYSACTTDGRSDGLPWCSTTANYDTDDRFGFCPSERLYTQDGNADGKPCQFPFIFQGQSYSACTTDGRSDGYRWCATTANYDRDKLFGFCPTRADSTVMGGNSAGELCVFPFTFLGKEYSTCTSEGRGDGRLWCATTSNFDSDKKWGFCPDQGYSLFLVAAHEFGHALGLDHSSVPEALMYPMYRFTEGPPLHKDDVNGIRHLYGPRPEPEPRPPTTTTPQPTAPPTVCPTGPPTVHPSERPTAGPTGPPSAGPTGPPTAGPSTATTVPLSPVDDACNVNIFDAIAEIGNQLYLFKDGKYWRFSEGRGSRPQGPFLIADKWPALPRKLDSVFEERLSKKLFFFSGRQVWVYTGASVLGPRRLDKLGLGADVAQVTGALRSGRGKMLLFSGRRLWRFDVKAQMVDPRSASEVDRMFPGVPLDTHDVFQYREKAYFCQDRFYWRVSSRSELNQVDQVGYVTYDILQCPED"}, "Neutrophil collagenase": {"target": "Neutrophil collagenase (Homo sapiens, UniProt P22894)", "sequence (P22894 whole entry)": "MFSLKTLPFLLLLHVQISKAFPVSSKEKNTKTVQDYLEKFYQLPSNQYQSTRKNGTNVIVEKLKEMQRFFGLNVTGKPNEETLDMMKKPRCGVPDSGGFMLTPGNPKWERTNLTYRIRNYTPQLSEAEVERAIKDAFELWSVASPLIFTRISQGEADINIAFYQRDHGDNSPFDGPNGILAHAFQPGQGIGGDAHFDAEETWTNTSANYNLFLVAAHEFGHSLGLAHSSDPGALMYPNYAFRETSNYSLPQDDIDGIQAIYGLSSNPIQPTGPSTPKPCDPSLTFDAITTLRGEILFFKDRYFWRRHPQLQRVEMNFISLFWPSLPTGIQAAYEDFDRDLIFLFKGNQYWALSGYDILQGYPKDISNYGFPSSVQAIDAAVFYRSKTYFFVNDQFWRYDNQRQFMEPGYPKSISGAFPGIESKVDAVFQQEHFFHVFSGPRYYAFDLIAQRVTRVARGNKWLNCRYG", "assay": "Inhibition of matrix metalloprotease-8 (MMP-8)."}, "[18]": {"target": "72 kDa type IV collagenase (Homo sapiens, UniProt P08253)", "sequence (P08253 whole entry)": "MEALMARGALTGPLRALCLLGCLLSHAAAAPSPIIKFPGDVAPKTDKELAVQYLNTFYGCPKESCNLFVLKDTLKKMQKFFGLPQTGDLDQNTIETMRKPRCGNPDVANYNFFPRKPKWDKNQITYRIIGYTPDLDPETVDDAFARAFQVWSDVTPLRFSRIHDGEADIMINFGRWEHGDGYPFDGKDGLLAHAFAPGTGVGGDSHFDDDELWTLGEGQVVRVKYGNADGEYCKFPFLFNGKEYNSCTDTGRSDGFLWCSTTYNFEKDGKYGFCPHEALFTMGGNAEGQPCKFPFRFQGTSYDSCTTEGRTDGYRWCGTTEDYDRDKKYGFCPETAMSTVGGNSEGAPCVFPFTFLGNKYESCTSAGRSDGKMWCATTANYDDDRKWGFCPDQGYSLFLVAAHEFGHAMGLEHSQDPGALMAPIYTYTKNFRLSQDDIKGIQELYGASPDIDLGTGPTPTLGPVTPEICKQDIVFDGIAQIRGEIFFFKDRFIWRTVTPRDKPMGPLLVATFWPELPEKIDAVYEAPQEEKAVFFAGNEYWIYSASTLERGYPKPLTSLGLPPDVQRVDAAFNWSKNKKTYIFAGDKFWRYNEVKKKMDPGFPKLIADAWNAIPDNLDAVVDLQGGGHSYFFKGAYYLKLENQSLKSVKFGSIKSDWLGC"}, "Caspase-1": {"target": "T5, Caspase-1 (Homo sapiens, UniProt P29466)", "T5 sequence (P29466 whole entry)": "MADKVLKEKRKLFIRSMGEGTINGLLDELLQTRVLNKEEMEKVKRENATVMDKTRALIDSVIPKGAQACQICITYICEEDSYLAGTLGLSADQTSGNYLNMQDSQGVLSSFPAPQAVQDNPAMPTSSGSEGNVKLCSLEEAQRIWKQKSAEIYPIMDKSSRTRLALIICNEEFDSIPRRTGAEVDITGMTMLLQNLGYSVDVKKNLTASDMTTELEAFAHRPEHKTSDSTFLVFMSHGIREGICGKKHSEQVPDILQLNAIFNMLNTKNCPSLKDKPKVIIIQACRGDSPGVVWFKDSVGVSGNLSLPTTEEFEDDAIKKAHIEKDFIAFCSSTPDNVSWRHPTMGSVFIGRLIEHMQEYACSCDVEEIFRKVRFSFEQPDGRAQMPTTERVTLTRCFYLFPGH"}, "Caspase-3": {"target": "Caspase-3 (Homo sapiens, UniProt P42574)", "sequence (P42574 29-175 limits assumed)": "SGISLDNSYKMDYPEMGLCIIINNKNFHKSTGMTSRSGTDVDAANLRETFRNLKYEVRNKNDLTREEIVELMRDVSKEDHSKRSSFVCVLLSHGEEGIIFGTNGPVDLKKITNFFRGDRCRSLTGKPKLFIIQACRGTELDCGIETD", "sequence (P42574 176-277 limits assumed)": "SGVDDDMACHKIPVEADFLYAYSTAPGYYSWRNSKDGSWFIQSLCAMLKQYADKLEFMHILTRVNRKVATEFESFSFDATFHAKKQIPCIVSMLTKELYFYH", "assay": "Inhibitory activity against caspase-3."}, "Homo sapiens": {"species": "Homo sapiens", "assay": "Half life in humans.", "type": "ADME, organism-based", "settings": "in vivo"}},
  "note": "Residues, ends and D or L forms follow the SMILES beside them. *: point of attachment. Cbz = O=C(OCc1ccccc1)*",
  "data": [
    {"smiles": "CC(C)C[C@H](NC(=O)[C@H](C)NC(=O)C[C@H](O)[C@H](Cc1ccccc1)NC(=O)[C@@H](NC(=O)c1ccccn1)C(C)C)C(N)=O", "values": [
      {"measurement": "IC50", "setting": "Cathepsin D [1]", "value": 0.021, "unit": "µM"},
      {"measurement": "IC50", "setting": "[2]", "value": 0.00056, "unit": "µM"}
    ]},
    {"smiles": "C#CCSC[C@H](C(=O)NO)[C@@H](CC(C)C)C(=O)N[C@@H](Cc1ccccc1)C(=O)NC", "values": [
      {"measurement": "IC50", "setting": "[3]", "value": "> 10", "unit": "µM"},
      {"measurement": "inhibition", "setting": "[4]", "value": 83, "unit": "%"}
    ]},
    {"smiles": "CC(C)c1nc(CN(C)C(=O)N[C@H](C(=O)N[C@@H](Cc2ccccc2)C[C@H](O)[C@H](Cc2ccccc2)NC(=O)OCc2cncs2)C(C)C)cs1", "note": "[RITONAVIR]", "values": [
      {"measurement": "Cmax", "setting": "[5]", "value": 2.6, "unit": "µM"},
      {"measurement": "bioavailability", "setting": "[6]", "value": 78, "unit": "%"},
      {"measurement": "half-life", "setting": "[7]", "value": 1.2, "unit": "h"},
      {"measurement": "Tmax", "setting": "[8]", "value": 2, "unit": "h"}
    ]},
    {"smiles": "CC(C)C[C@H](NC(=O)OCc1ccccc1)C(=O)N[C@@H](Cc1ccccc1)C(=O)N[C@H](C=O)CC(=O)N(C)C", "note": "(Cbz-Leu-Phe-Asp(NMe2)-aldehyde)", "values": [
      {"measurement": "Ki", "setting": "[9]", "value": 0.005, "unit": "µM"},
      {"measurement": "EC50", "setting": "[10]", "value": 1.3, "unit": "µM"},
      {"measurement": "TC50", "setting": "[11]", "value": 63, "unit": "µM"}
    ]},
    {"smiles": "CC(C)C[C@H](NC(=O)OCc1ccccc1)C(=O)NCC(=O)CNC(=O)[C@H](CC(C)C)NC(=O)OCc1ccccc1", "values": [
      {"measurement": "Ki", "setting": "Cathepsin B", "value": 1.3, "unit": "µM"},
      {"measurement": "Ki", "setting": "Papain", "value": "> 10", "unit": "µM"},
      {"measurement": "Ki", "setting": "Procathepsin L", "value": 0.34, "unit": "µM"}
    ]},
    {"smiles": "COc1cc(C(C)C)c2c(c1)S(=O)(=O)N(COC(=O)c1c(Cl)ccc(OCCN3CCOCC3)c1Cl)C2=O", "values": [
      {"measurement": "Cmax", "setting": "[12]", "value": 0.47, "unit": "µg/mL"}
    ]},
    {"smiles": "CCCCNC(=O)C[C@H](O)[C@H](CC(C)C)NC(=O)[C@@H](NC(=O)Cc1ccc2ccccc2c1)C(C)CC", "note": "(some centres not stated)", "values": [
      {"measurement": "IC50", "setting": "Cathepsin D [13]", "value": 0.32, "unit": "µM"},
      {"measurement": "IC50", "setting": "Plasmepsin II", "value": 0.05, "unit": "µM"}
    ]},
    {"smiles": "CN1CCN=C1c1cccc(Oc2nc(Oc3cc(C(=N)N)ccc3O)c(F)c(N(C)CC(=O)O)c2F)c1", "note": "[FIDEXABAN]", "values": [
      {"measurement": "bioavailability", "setting": "[14]", "value": 20, "unit": "%"}
    ]},
    {"smiles": "Cc1cccc(C)c1OCC(=O)N[C@@H](Cc1ccccc1)[C@@H](O)C[C@H](Cc1ccccc1)NC(=O)[C@H](C(C)C)N1CCCNC1=O", "note": "[LOPINAVIR]", "values": [
      {"measurement": "Cmax at 8 h", "setting": "[15]", "value": "< 0.1", "unit": "µg/mL"},
      {"measurement": "Cmax at 8 h", "setting": "[16]", "value": 5.5, "unit": "µg/mL"},
      {"measurement": "EC50", "setting": "MT4", "value": 0.1, "unit": "µM"}
    ]},
    {"smiles": "CN1C(=O)N(C[C@H](C(=O)NO)[C@@H](CC2CCCC2)C(=O)N2CCCCC2)C(=O)C1(C)C", "values": [
      {"measurement": "Ki", "setting": "[17]", "value": 0.059, "unit": "µM"},
      {"measurement": "Ki", "setting": "Neutrophil collagenase", "value": 0.004, "unit": "µM"},
      {"measurement": "Ki", "setting": "[18]", "value": 0.154, "unit": "µM"}
    ]},
    {"smiles": "O=C1C[C@H](NC(=O)[C@@H]2CCC[C@@H]3CCC[C@H](NC(=O)OCc4ccccc4)C(=O)N32)C(O)O1", "note": "(some centres not stated)", "values": [
      {"measurement": "IC50", "setting": "Caspase-1", "value": 0.036, "unit": "µM"},
      {"measurement": "IC50", "setting": "Caspase-3", "value": "> 10", "unit": "µM"}
    ]},
    {"smiles": "CC1CNc2c(cccc2S(=O)(=O)N[C@@H](CCCNC(=N)N)C(=O)N2CC[C@@H](C)C[C@@H]2C(=O)O)C1", "note": "(some centres not stated) [ARGATROBAN]", "values": [
      {"measurement": "T1/2", "setting": "Homo sapiens", "value": 40, "unit": "h"}
    ]}
  ]
}
